Measured values: patent US11446319B2, “Composition containing flavonoid-cyclodextrin clathrate compound” (TAIYO KAGAKU CO., LTD., priority 2018, dated 2022)

System: human dermal fibroblasts
Assay type: cell-based
Conditions: 24 h
Method: Specifically, human dermal fibroblasts (manufactured by PromoCell) were subcultured in a 24-well plate using a medium for cells in a proportion of 3×10^4 cells/well. […] After 24 hours, the viability of the cells was analyzed.
The viability of the cells was analyzed as follows. The cells were incubated at 37° C. and 5% CO2 for 1 hour in the presence of Neutral Red (pigment) (The live cells incorporating Neutral Red, thereby making the cells distinguishable from dead cells or damaged cells, and quantifiable). Next, 50% ethanol and a solution of 0.05 M NaH2PO4 were added to the cells to thereby extract out the pigment from the cells. Thereafter, the absorbance of the cells was measured with a spectrophotometer at 540 nm, and compared to that of the cells unexposed to the light, and shown as viability (%)=(analytical value at 540 nm of the photo-irradiated cells×100/analytical value at 540 nm of the cells not irradiated with light) in Table 26.
The evaluation was made in the same manner as in Example 231 except that the composition used during the incubation for 24 hours was changed to have the components as listed in Tables 26 to 29.

In the case of `C[C@H](O)[C@H](O)[C@@H](O)[C@@H](O)C=O` [rhamnose], the viability is reported as “about 5%”.
